US10681909B2, “Herbicidal triazoles” (FMC Corporation, priority 2014, dated 2020)

Legend:
morningglory [1] = assay: Test A preemergence; type: in vivo, Ipomoea spp.; conditions: 0 to 100 scale (0 no effect, 100 complete control)
Description: (§1) Seeds of plant species selected from barnyardgrass (Echinochloa crus-galli), crabgrass, large (large crabgrass, Digitaria sanguinalis), kochia (Kochia scoparia), ragweed (common ragweed, Ambrosia elatior), foxtail, giant (giant foxtail, Setaria faberii), morningglory (Ipomoea spp.), pigweed (Amaranthus retroflexus), velvetleaf (Abutilon theophrasti), ryegrass, Italian (Italian ryegrass, Lolium multiflorum), wheat (Triticum aestivum), and corn (Zea mays) were planted into a blend of loam soil and sand and treated preemergence with a directed soil spray using test chemicals formulated in a non-phytotoxic solvent mixture which included a surfactant. At the same time, plants selected from these crop and weed species and also blackgrass (Alopecurus myosuroides), and galium (catchweed bedstraw, Galium aparine), were planted in pots containing the same blend of loam soil and sand and treated with postemergence applications of test chemicals formulated in the same manner. Plants ranged in height from 2 to 10 cm and were in the one- to two-leaf stage for the postemergence treatment. […] A dash (-) response means no test result.

wheat [2] = assay: Test A preemergence; type: in vivo, Triticum aestivum; conditions: 0 to 100 scale (0 no effect, 100 complete control)
Description: as §1

crabgrass, large [3] = assay: Test A preemergence; type: in vivo, Digitaria sanguinalis; conditions: 0 to 100 scale (0 no effect, 100 complete control)
Description: as §1

barnyardgrass [4] = assay: Test B flooded paddy test; type: in vivo, Echinochloa crus-galli; conditions: applied to paddy water at 2-leaf stage, visual rating after 13 to 15 d, scale 0 (no effect) to 100 (complete control)
Description: (§2) At time of treatment, test pots were flooded to 3 cm above the soil surface, treated by application of test compounds directly to the paddy water, and then maintained at that water depth for the duration of the test. Treated plants and controls were maintained in a greenhouse for 13 to 15 d, after which time all species were compared to controls and visually evaluated. […] A dash (-) response means no test result.

crabgrass, large [5] = assay: Test A postemergence; type: in vivo, Digitaria sanguinalis; conditions: 0 to 100 scale (0 no effect, 100 complete control), approx. 10 d
Description: as §1

foxtail, giant [6] = assay: Test A preemergence; type: in vivo, Setaria faberii; conditions: 0 to 100 scale (0 no effect, 100 complete control)
Description: as §1

corn [7] = assay: Test A postemergence; type: in vivo, Zea mays; conditions: 0 to 100 scale (0 no effect, 100 complete control), approx. 10 d
Description: as §1

velvetleaf [8] = assay: Test A postemergence; type: in vivo, Abutilon theophrasti; conditions: 0 to 100 scale (0 no effect, 100 complete control), approx. 10 d
Description: as §1

sedge, umbrella = assay: Test B flooded paddy test; type: in vivo, Cyperus difformis; conditions: applied to paddy water at 2-leaf stage, visual rating after 13 to 15 d, scale 0 (no effect) to 100 (complete control)
Description: as §2

barnyardgrass [9] = assay: Test A postemergence; type: in vivo, Echinochloa crus-galli; conditions: 0 to 100 scale (0 no effect, 100 complete control), approx. 10 d
Description: as §1

wheat [10] = assay: Test A postemergence; type: in vivo, Triticum aestivum; conditions: 0 to 100 scale (0 no effect, 100 complete control), approx. 10 d
Description: as §1

rice = assay: Test B flooded paddy test; type: in vivo, Oryza sativa; conditions: applied to paddy water at 2-leaf stage, visual rating after 13 to 15 d, scale 0 (no effect) to 100 (complete control)
Description: as §2

morningglory [11] = assay: Test A postemergence; type: in vivo, Ipomoea spp.; conditions: 0 to 100 scale (0 no effect, 100 complete control), approx. 10 d
Description: as §1

velvetleaf [12] = assay: Test A preemergence; type: in vivo, Abutilon theophrasti; conditions: 0 to 100 scale (0 no effect, 100 complete control)
Description: as §1

pigweed [13] = assay: Test A preemergence; type: in vivo, Amaranthus retroflexus; conditions: 0 to 100 scale (0 no effect, 100 complete control)
Description: as §1

ducksalad = assay: Test B flooded paddy test; type: in vivo, Heteranthera limosa; conditions: applied to paddy water at 2-leaf stage, visual rating after 13 to 15 d, scale 0 (no effect) to 100 (complete control)
Description: as §2

pigweed [14] = assay: Test A postemergence; type: in vivo, Amaranthus retroflexus; conditions: 0 to 100 scale (0 no effect, 100 complete control), approx. 10 d
Description: as §1

corn [15] = assay: Test A preemergence; type: in vivo, Zea mays; conditions: 0 to 100 scale (0 no effect, 100 complete control)
Description: as §1

barnyardgrass [16] = assay: Test A preemergence; type: in vivo, Echinochloa crus-galli; conditions: 0 to 100 scale (0 no effect, 100 complete control)
Description: as §1

foxtail, giant [17] = assay: Test A postemergence; type: in vivo, Setaria faberii; conditions: 0 to 100 scale (0 no effect, 100 complete control), approx. 10 d
Description: as §1

SMILES	Plant response rating, Morningglory (morningglory [1]; 125 g ai/ha)	Plant response rating, Morningglory (morningglory [1]; 500 g ai/ha, approx. 10 d)	Plant response rating, Wheat (wheat [2]; 125 g ai/ha)	Plant response rating, Wheat (wheat [2]; 500 g ai/ha, approx. 10 d)	Plant response rating, Crabgrass, Large (crabgrass, large [3]; 125 g ai/ha)	Plant response rating, Crabgrass, Large (crabgrass, large [3]; 500 g ai/ha, approx. 10 d)	Plant response rating, Crabgrass, Large (crabgrass, large [5]; 125 g ai/ha)	Plant response rating, Crabgrass, Large (crabgrass, large [5]; 500 g ai/ha)	Plant response rating, Foxtail, Giant (foxtail, giant [6]; 125 g ai/ha)	Plant response rating, Foxtail, Giant (foxtail, giant [6]; 500 g ai/ha, approx. 10 d)	Plant response rating, Corn (corn [7]; 125 g ai/ha)	Plant response rating, Corn (corn [7]; 500 g ai/ha)	Plant response rating, Velvetleaf (velvetleaf [8]; 125 g ai/ha)	Plant response rating, Velvetleaf (velvetleaf [8]; 500 g ai/ha)	Plant response rating, Barnyardgrass (barnyardgrass [9]; 125 g ai/ha)	Plant response rating, Barnyardgrass (barnyardgrass [9]; 500 g ai/ha)	Plant response rating, Wheat (wheat [10]; 125 g ai/ha)	Plant response rating, Wheat (wheat [10]; 500 g ai/ha)	Plant response rating, Morningglory (morningglory [11]; 125 g ai/ha)	Plant response rating, Morningglory (morningglory [11]; 500 g ai/ha)	also measured
CCc1nc(-c2ccc(F)cc2)nn1Cc1ccnc(C(F)(F)F)c1 [Compound 2]	0	60	0	20	100	100	70	100	80	100	20	90	30	100	20	90	0	70	70	90	Plant response rating, Barnyardgrass, Flood (barnyardgrass [4]; 125 g ai/ha): 0; Plant response rating, Sedge, Umbrella, Flood (sedge, umbrella; 125 g ai/ha): 75; Plant response rating, Rice, Flood (rice; 125 g ai/ha): 20; Plant response rating, Velvetleaf (velvetleaf [12]; 125 g ai/ha): 0; Plant response rating, Velvetleaf (velvetleaf [12]; 500 g ai/ha, approx. 10 d): 40; Plant response rating, Pigweed (pigweed [13]; 125 g ai/ha): 100; Plant response rating, Pigweed (pigweed [13]; 500 g ai/ha, approx. 10 d): 100; Plant response rating, Ducksalad, Flood (ducksalad; 125 g ai/ha): 30; Plant response rating, Pigweed (pigweed [14]; 125 g ai/ha): 100; Plant response rating, Pigweed (pigweed [14]; 500 g ai/ha): 100; Plant response rating, Corn (corn [15]; 125 g ai/ha): 0; Plant response rating, Corn (corn [15]; 500 g ai/ha, approx. 10 d): 0; Plant response rating, Barnyardgrass (barnyardgrass [16]; 125 g ai/ha): 0; Plant response rating, Barnyardgrass (barnyardgrass [16]; 500 g ai/ha, approx. 10 d): 80; Plant response rating, Foxtail, Giant (foxtail, giant [17]; 125 g ai/ha): 70; Plant response rating, Foxtail, Giant (foxtail, giant [17]; 500 g ai/ha): 90
Cc1nc(-c2ccc(C(F)(F)F)cc2)nn1Cc1ccnc(C(F)(F)F)c1 [Compound 7]	10	60	0	10	90	100	50	90	80	100	30	50	80	100	40	80	20	50	50	80	Plant response rating, Barnyardgrass, Flood (barnyardgrass [4]; 250 g ai/ha): 0; Plant response rating, Sedge, Umbrella, Flood (sedge, umbrella; 250 g ai/ha): 85; Plant response rating, Rice, Flood (rice; 250 g ai/ha): 0; Plant response rating, Velvetleaf (velvetleaf [12]; 125 g ai/ha): 20; Plant response rating, Velvetleaf (velvetleaf [12]; 500 g ai/ha, approx. 10 d): 70; Plant response rating, Pigweed (pigweed [13]; 125 g ai/ha): 90; Plant response rating, Pigweed (pigweed [13]; 500 g ai/ha, approx. 10 d): 100; Plant response rating, Ducksalad, Flood (ducksalad; 250 g ai/ha): 0; Plant response rating, Pigweed (pigweed [14]; 125 g ai/ha): 100; Plant response rating, Pigweed (pigweed [14]; 500 g ai/ha): 100; Plant response rating, Corn (corn [15]; 125 g ai/ha): 10; Plant response rating, Corn (corn [15]; 500 g ai/ha, approx. 10 d): 10; Plant response rating, Barnyardgrass (barnyardgrass [16]; 125 g ai/ha): 20; Plant response rating, Barnyardgrass (barnyardgrass [16]; 500 g ai/ha, approx. 10 d): 80; Plant response rating, Foxtail, Giant (foxtail, giant [17]; 125 g ai/ha): 60; Plant response rating, Foxtail, Giant (foxtail, giant [17]; 500 g ai/ha): 90
